In PubChem BioAssay (NCI):
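48-hour exposure; five concentrations; linearly interpolated endpoints. TGI is the concentration that stops growth completely.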

What was measured:
Test in all cases: NCI-60 cell line screen, 48 h
[1] = system: SK-MEL-5 melanoma
[2] = system: EKVX NSCLC
[3] = system: DU-145 prostate
[4] = system: SF-295 CNS
[5] = system: HOP-62 NSCLC
[6] = system: NCI-H226 lung
[7] = system: SF-539 CNS
[8] = system: NCI/ADR-RES ovarian
[9] = system: U251 CNS
[10] = system: UACC-257 melanoma
[11] = system: MCF7 breast

SMILES	TGI [1] [µM]	TGI [2] [µM]	TGI [3] [µM]	TGI [4] [µM]	TGI [5] [µM]	TGI [6] [µM]	TGI [7] [µM]	TGI [8] [µM]	TGI [9] [µM]	TGI [10] [µM]	TGI [11] [µM]
NC(=S)N/N=C/c1cc(CN2CCOCC2)c(N)cn1	> 100	> 100	> 100	> 100	> 100	45.8	84.2	94.3	> 100	> 100	> 100
N#C/C(=C\c1ccc(Cl)cc1)c1nc2ccccc2c(=O)[nH]1	> 100	> 100	> 100	> 100	> 100	> 100	> 100	> 100	> 100	> 100	> 100
CCCCCCN(C(=O)Oc1ccccc1)C(C#N)c1ccccc1 (stereo not given)	> 100	> 100	> 100	> 100	> 100	> 100	> 100	> 100	> 100	> 100	> 100
COc1ccc2oc(=N)c(C(N)=S)cc2c1	57.8	95.7	> 100	> 100	> 100	44.3	51.7	37.1	> 100	93.4	> 100
Cc1sc2ncnc(NCCc3ccccc3)c2c1C	12.2	13.9	70.9	36.9	33.8	42.3	31.2	> 100	26.7	17.3	28.6
Oc1ccccc1C=Nc1ccc(Oc2ccc(Cl)cc2)c(Cl)c1	50.9	52	> 100	48.8	34.7	93.9	58.7	47.5	50.5	> 100	> 100
CN(C)c1ccc(C2CC(=O)CC(c3ccc(N(C)C)cc3)C23C(=O)NC(=O)NC3=O)cc1 (stereo not given)	> 25	> 25	> 25	> 25	> 25	> 25	> 25	> 25	> 25	> 25	> 25
Fc1ccc(C(OCCN2CCC3CCC(C2)N3CCCc2ccccc2)c2ccc(F)cc2)cc1 (stereo not given)	3.22	15.2	22.8	8.45	23.3	15.1	2.82	13.7	15.1	8.93	13
CC(=O)NNC=N/C(C#N)=C(\N)C#N	> 100	> 100	> 100	> 100	> 100	> 100	> 100	> 100	> 100	> 100	> 100
Cc1ccc(S(=O)(=O)N(c2ccccc2F)C2CCCCC2O)cc1 (stereo not given)	56.9	> 100	96.7	> 100	> 100	> 100	> 100	> 100	> 100	5.64	48.5
C[N+](C)(C)CC1Cc2ccccc2C1=O (stereo not given)	> 10	> 10	> 10	> 10	> 10	> 10	> 10	> 6.85	> 10	> 10	5.41
Oc1cn(-c2ccc(Cl)cc2)nc1-c1nnc(Nc2ccccc2)o1	23.6	72.8	42.1	39.2	31.6	31.4	30.8	30.1	34.1	43.5	33.9
CC[C@@]1(O)C(=O)OCc2c1c(Cl)c1n(c2=O)Cc2cc3ccccc3nc2-1	5.42	> 70.5	8.63	18	8.03	31.2	6.09	15.1	11.5	26.7	> 34.7
CCOP(=O)(CS(C)=O)O[C@@H]1C[C@H](C)CC[C@H]1C(C)C (stereo not given in full)	6.85	11.2	26.2	18.5	21.4	12.2	26.9	26	16.1	18.7	11.1
CCOC(=O)CNC(=O)C(CSC(=O)N(O)c1ccc(Br)cc1)NC(=O)CCC(N)C(=O)OCC (stereo not given)	> 50	> 50	> 50	> 50	> 50	> 50	> 50	> 50	> 50	> 50	> 50
